Experimental data reported in PubChem BioAssay (NCI).
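Exposure lasted 48 hours, with cells grown in 96-well plates and compounds tested at five concentrations. GI50: concentration for 50% inhibition of growth. TGI marks complete inhibition of growth.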

Experiments:
Assay in all cases: NCI anticancer screen, dose series, 48 h
786-0 renal = system: 786-0 renal
A498 renal = system: A498 renal
A549 NSCLC = system: A549 NSCLC
ACHN renal = system: ACHN renal
BT-549 breast = system: BT-549 breast
CAKI-1 renal = system: CAKI-1 renal
CCRF-CEM leukemia = system: CCRF-CEM leukemia
COLO 205 colon = system: COLO 205 colon
DU-145 prostate = system: DU-145 prostate
HCC-2998 colon = system: HCC-2998 colon
HCT-15 colon = system: HCT-15 colon
HL-60(TB) leukemia = system: HL-60(TB) leukemia
HOP-62 NSCLC = system: HOP-62 NSCLC
HS 578T breast = system: HS 578T breast
HT29 colon = system: HT29 colon
IGROV1 ovarian = system: IGROV1 ovarian
K-562 leukemia = system: K-562 leukemia
KM12 colon = system: KM12 colon
M14 melanoma = system: M14 melanoma
MALME-3M melanoma = system: MALME-3M melanoma
MDA-MB-231 breast = system: MDA-MB-231 breast
MDA-MB-435 = system: MDA-MB-435
MOLT-4 leukemia = system: MOLT-4 leukemia
NCI-H226 lung = system: NCI-H226 lung
NCI-H23 lung = system: NCI-H23 lung
NCI-H460 lung = system: NCI-H460 lung
NCI-H522 lung = system: NCI-H522 lung
NCI/ADR-RES ovarian = system: NCI/ADR-RES ovarian
OVCAR-3 ovarian = system: OVCAR-3 ovarian
OVCAR-5 ovarian = system: OVCAR-5 ovarian
OVCAR-8 ovarian = system: OVCAR-8 ovarian
PC-3 prostate = system: PC-3 prostate
RPMI-8226 leukemia = system: RPMI-8226 leukemia
RXF 393 renal = system: RXF 393 renal
SF-268 CNS = system: SF-268 CNS
SF-295 CNS = system: SF-295 CNS
SF-539 CNS = system: SF-539 CNS
SK-MEL-2 melanoma = system: SK-MEL-2 melanoma
SK-MEL-28 melanoma = system: SK-MEL-28 melanoma
SK-MEL-5 melanoma = system: SK-MEL-5 melanoma
SK-OV-3 ovarian = system: SK-OV-3 ovarian
SN12C renal = system: SN12C renal
SNB-19 CNS = system: SNB-19 CNS
SNB-75 CNS = system: SNB-75 CNS
SR leukemia = system: SR leukemia
SW-620 colon = system: SW-620 colon
T-47D breast = system: T-47D breast
TK-10 renal = system: TK-10 renal
U251 CNS = system: U251 CNS
UACC-257 melanoma = system: UACC-257 melanoma
UACC-62 melanoma = system: UACC-62 melanoma
UO-31 renal = system: UO-31 renal

Which results are given for Cc1cc(C)cc(NC2=C(Cl)C(=O)c3nc(C)ccc3C2=O)c1?
GI50 (786-0 renal): 1.7 µM; TGI (786-0 renal): 3.42 µM; GI50 (A498 renal): 14.3 µM; TGI (A498 renal): 28.1 µM; GI50 (A549 NSCLC): 4.37 µM; TGI (A549 NSCLC): 19.1 µM; GI50 (ACHN renal): 1.78 µM; TGI (ACHN renal): 3.4 µM; GI50 (BT-549 breast): 1.41 µM; TGI (BT-549 breast): 2.83 µM; GI50 (CAKI-1 renal): 1.59 µM; TGI (CAKI-1 renal): 3.18 µM; GI50 (CCRF-CEM leukemia): 2.09 µM; TGI (CCRF-CEM leukemia): 5.78 µM; GI50 (COLO 205 colon): 2.23 µM; TGI (COLO 205 colon): 5.01 µM; GI50 (DU-145 prostate): 1.85 µM; TGI (DU-145 prostate): 3.55 µM; GI50 (HCC-2998 colon): 3.18 µM; TGI (HCC-2998 colon): 10.5 µM; GI50 (HCT-15 colon): 1.09 µM; TGI (HCT-15 colon): 2.64 µM; GI50 (HL-60(TB) leukemia): 1.55 µM; TGI (HL-60(TB) leukemia): 3.85 µM; GI50 (HOP-62 NSCLC): 4.66 µM; TGI (HOP-62 NSCLC): 19.7 µM; GI50 (HS 578T breast): 2.24 µM; TGI (HS 578T breast): 5.81 µM; GI50 (HT29 colon): 3.66 µM; TGI (HT29 colon): 19.2 µM; GI50 (IGROV1 ovarian): 1.81 µM; TGI (IGROV1 ovarian): 3.95 µM; GI50 (K-562 leukemia): 0.712 µM; TGI (K-562 leukemia): 4.81 µM; GI50 (KM12 colon): 5.6 µM; TGI (KM12 colon): 20.7 µM; GI50 (M14 melanoma): 1.63 µM; TGI (M14 melanoma): 3.07 µM; GI50 (MALME-3M melanoma): 2.3 µM; TGI (MALME-3M melanoma): 4.42 µM; GI50 (MDA-MB-231 breast): 1.68 µM; TGI (MDA-MB-231 breast): 4.13 µM; GI50 (MDA-MB-435): 1.96 µM; TGI (MDA-MB-435): 3.86 µM; GI50 (MOLT-4 leukemia): 1.6 µM; TGI (MOLT-4 leukemia): 5.61 µM; GI50 (NCI-H226 lung): 1.8 µM; TGI (NCI-H226 lung): 4.58 µM; GI50 (NCI-H23 lung): 1.7 µM; TGI (NCI-H23 lung): 4.59 µM; GI50 (NCI-H460 lung): 4.2 µM; TGI (NCI-H460 lung): 20.1 µM; GI50 (NCI-H522 lung): 2.05 µM; TGI (NCI-H522 lung): 5.29 µM; GI50 (NCI/ADR-RES ovarian): 2.06 µM; TGI (NCI/ADR-RES ovarian): 6.79 µM; GI50 (OVCAR-3 ovarian): 0.405 µM; TGI (OVCAR-3 ovarian): 1.47 µM; GI50 (OVCAR-5 ovarian): 1.78 µM; TGI (OVCAR-5 ovarian): 3.69 µM; GI50 (OVCAR-8 ovarian): 2.14 µM; TGI (OVCAR-8 ovarian): 5.92 µM; GI50 (PC-3 prostate): 1.73 µM; TGI (PC-3 prostate): 10.2 µM; GI50 (RPMI-8226 leukemia): 1.63 µM; TGI (RPMI-8226 leukemia): 4.4 µM; GI50 (RXF 393 renal): 1.41 µM; TGI (RXF 393 renal): 2.74 µM; GI50 (SF-268 CNS): 3.74 µM; TGI (SF-268 CNS): 20.7 µM; GI50 (SF-295 CNS): 4.58 µM; TGI (SF-295 CNS): 16.3 µM; GI50 (SF-539 CNS): 1.76 µM; TGI (SF-539 CNS): 3.25 µM; GI50 (SK-MEL-2 melanoma): 2.88 µM; TGI (SK-MEL-2 melanoma): 9.57 µM; GI50 (SK-MEL-28 melanoma): 1.99 µM; TGI (SK-MEL-28 melanoma): 3.94 µM; GI50 (SK-MEL-5 melanoma): 1.65 µM; TGI (SK-MEL-5 melanoma): 3.08 µM; GI50 (SK-OV-3 ovarian): 14.3 µM; TGI (SK-OV-3 ovarian): 27.7 µM; GI50 (SN12C renal): 2 µM; TGI (SN12C renal): 5.79 µM; GI50 (SNB-19 CNS): 3.41 µM; TGI (SNB-19 CNS): 24.4 µM; GI50 (SNB-75 CNS): 2.15 µM; TGI (SNB-75 CNS): 6.48 µM; GI50 (SR leukemia): 1.22 µM; TGI (SR leukemia): 3.96 µM; GI50 (SW-620 colon): 2.07 µM; TGI (SW-620 colon): 4.65 µM; GI50 (T-47D breast): 1.55 µM; TGI (T-47D breast): 4.26 µM; GI50 (TK-10 renal): 2.21 µM; TGI (TK-10 renal): 3.73 µM; GI50 (U251 CNS): 2.35 µM; TGI (U251 CNS): 8.09 µM; GI50 (UACC-257 melanoma): 1.64 µM; TGI (UACC-257 melanoma): 3.12 µM; GI50 (UACC-62 melanoma): 2.63 µM; TGI (UACC-62 melanoma): 7.42 µM; GI50 (UO-31 renal): 1.43 µM; TGI (UO-31 renal): 2.87 µM
